The results in this text go back to paper PMC6407587, “Inhibition potential of phenolic constituents from the aerial parts of Tetrastigma hemsleyanum against soluble epoxide hydrolase and nitric oxide synthase” (Journal of Enzyme Inhibition and Medicinal Chemistry, 2019).

The target in one data set is T1, sEH (Homo sapiens, UniProt P34913).
T1 sequence (P34913 1-555): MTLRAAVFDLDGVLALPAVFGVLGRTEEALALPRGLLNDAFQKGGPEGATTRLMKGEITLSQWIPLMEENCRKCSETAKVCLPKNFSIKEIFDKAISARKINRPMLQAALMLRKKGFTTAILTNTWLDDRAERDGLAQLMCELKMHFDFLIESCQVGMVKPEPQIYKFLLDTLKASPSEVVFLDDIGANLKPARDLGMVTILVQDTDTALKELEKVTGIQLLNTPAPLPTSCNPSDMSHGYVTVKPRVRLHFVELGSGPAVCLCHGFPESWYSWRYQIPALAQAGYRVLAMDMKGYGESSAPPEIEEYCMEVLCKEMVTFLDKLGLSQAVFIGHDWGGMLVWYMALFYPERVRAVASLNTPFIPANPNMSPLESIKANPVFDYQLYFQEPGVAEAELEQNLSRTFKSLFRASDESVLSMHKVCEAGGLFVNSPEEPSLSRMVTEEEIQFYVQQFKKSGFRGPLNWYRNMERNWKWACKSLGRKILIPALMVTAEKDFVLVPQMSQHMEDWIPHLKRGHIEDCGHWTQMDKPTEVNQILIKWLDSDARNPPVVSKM
Kind of data set: sEH inhibitory activity, fluorescence assay with PHOME substrate. In kind it is biochemical. Conditions: for inhibition at 100 µM / Inhibition on sEH at 100 µM (%): 100 µM compound, tested three times; for IC50: PHOME substrate, dose-dependent response curve.

Data set [1] deals with LPS-induced NO production in macrophage RAW 264.7 cells (iNOS). Kind of data set: Inhibition of LPS-induced NO production in RAW 264.7 macrophages (Griess reaction, measure of iNOS activity).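 As to all read-outs here: cells pretreated with compound for 2 h, then stimulated 24 h with LPS at 500 ng/ml, supernatant nitrite quantified by absorbance at 550 nm against a nitrite standard curve.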 It is filed as cell-based. Conditions: Mus musculus; for inhibition at 50 µM: 50 µM compound, LPS-stimulated RAW264.7 cells, read-out: Inhibition of NO production at 50 µM (%). In general terms: Nitrite, measured by Griess reagent, commonly stands in for NO production.

For orientation: inhibition means the drop in the measured response relative to a control, in per cent. One may read the IC50 as the point on the concentration scale where inhibition reaches its midpoint. A low value points to inhibition by little substance.
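For Cytotoxicity in RAW 264.7 cells (MTT) in this document: viability gauged by mitochondrial reductase turning MTT into formazan, optical density read at 570 nm, with untreated control cells set as 100% viability.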

At sEH, `C[C@@H]1O[C@@H](OC[C@H]2O[C@@H](Oc3c(-c4ccc(O)cc4)oc4cc(O)cc(O)c4c3=O)[C@H](O)[C@@H](O)[C@H]2O)[C@H](O)[C@H](O)[C@H]1O` [Compound 15] yielded an inhibition at 100 µM of 60.2 ± 0.5% and an IC50 of 18.3 ± 0.2 µM. Besides, the “Cytotoxicity in RAW 264.7 cells (MTT)” value in the data set on RAW 264.7 cells was “did not exhibit significant cytotoxicity”. Besides, the inhibition at 50 µM in data set [1] was 3%.
As to `COc1cc([C@H]2Oc3c(OC)cc(CCCO)cc3[C@@H]2CO[C@@H]2O[C@H](CO)[C@@H](O)[C@H](O)[C@H]2O)ccc1O` [Compound 20], the “Inhibition on sEH at 100 µM (%)” value at sEH was “N.I”. The “Cytotoxicity in RAW 264.7 cells (MTT)” value in the data set on RAW 264.7 cells is reported as “did not exhibit significant cytotoxicity”. In data set [1], the inhibition at 50 µM stood at 13.9%.
Turning to `COc1cc([C@@H]2Oc3c(OC)cc(CCCO)cc3[C@H]2CO)cc(OC)c1O` [Compound 21], the “Inhibition on sEH at 100 µM (%)” value on sEH was “N.I”. Further, the “Cytotoxicity in RAW 264.7 cells (MTT)” value in the data set on RAW 264.7 cells was “did not exhibit significant cytotoxicity”. For the same compound, the inhibition at 50 µM in data set [1] came out at 16.2%.
Turning to `O=C1CC(c2ccc(O)c(O)c2)c2c(O)cc3c(c2O1)CC(O)C(c1ccc(O)c(O)c1)O3` (centres unmarked) [Compound 22], on sEH, the inhibition at 100 µM was 31.9 ± 4.5%. Besides, the “Cytotoxicity in RAW 264.7 cells (MTT)” value with RAW 264.7 cells is recorded as “did not exhibit significant cytotoxicity”. For the same compound, the inhibition at 50 µM in data set [1] stood at 18.3%.
In the same order, the values of `O=Cc1ccc(O)c(O)c1` [Compound 24] are 38.6 ± 0.2%, “did not exhibit significant cytotoxicity” and 22.2%.
In the same order, the values of `O=C(O)c1ccc(O)cc1` [Compound 25] are 42 ± 3.9%, “did not exhibit significant cytotoxicity” and 17%.
As to `COc1ccc(C(=O)O)cc1O` [Compound 27], at sEH, the inhibition at 100 µM was found to be 17.5 ± 0.2%. For the same compound, the “Cytotoxicity in RAW 264.7 cells (MTT)” value with RAW 264.7 cells is given as “did not exhibit significant cytotoxicity”. The inhibition at 50 µM in data set [1] is 24%.
`O=C(CO)c1ccc(O)cc1` [Compound 28] showed an inhibition at 100 µM against sEH of 22.1 ± 0.9%. In the data set on RAW 264.7 cells, the “Cytotoxicity in RAW 264.7 cells (MTT)” value is reported as “did not exhibit significant cytotoxicity”. Besides, the inhibition at 50 µM in data set [1] was determined as 6.2%.
Turning to `O=C(O)/C=C/c1ccc(O)c(O)c1` [Compound 30], at sEH, it took 21 ± 0.4 µM to reach half-maximal inhibition (IC50). For the same compound, in the data set with RAW 264.7 cells, the “Cytotoxicity in RAW 264.7 cells (MTT)” value is on record as “did not exhibit significant cytotoxicity”. Further, the inhibition at 50 µM in data set [1] was 21.5%.
Consider `Oc1ccc(/C=C/c2cc(O)cc(O)c2)cc1` [Compound 32], for which the IC50 against sEH was found to be 6.8 ± 0.9 µM; in data set [1] (RAW264.7, LPS-stimulated RAW264.7 cells, means ± SE, n = 3) it was 30.6 ± 1.8 µM. Further, the “Cytotoxicity in RAW 264.7 cells (MTT)” value in the data set with RAW 264.7 cells was “did not exhibit significant cytotoxicity”. In addition, the inhibition at 50 µM in data set [1] came to 77.7%.
Consider `Oc1ccc(-c2ccc(O)c(O)c2)cc1O` [Compound 33], for which at 100 µM the inhibition against sEH was 19.4 ± 0.8%. Besides, in the data set on RAW 264.7 cells, the “Cytotoxicity in RAW 264.7 cells (MTT)” value is listed as “did not exhibit significant cytotoxicity”. Further, the inhibition at 50 µM in data set [1] was 3%.
For `OC[C@H]1O[C@@H](OCCc2ccccc2)[C@H](O)[C@@H](O)[C@@H]1O` [Compound 34], at 100 µM the inhibition on sEH was 13.3 ± 0.2%. Besides, the “Cytotoxicity in RAW 264.7 cells (MTT)” value with RAW 264.7 cells is “did not exhibit significant cytotoxicity”. Moreover, the inhibition at 50 µM in data set [1] was determined as 12.8%.
Take `OC[C@H]1O[C@@H](OC[C@@H](O)c2ccc(O)cc2)[C@H](O)[C@@H](O)[C@@H]1O` [Compound 35]: the inhibition at 100 µM at sEH was 10.5 ± 3%. Moreover, in the data set with RAW 264.7 cells, the “Cytotoxicity in RAW 264.7 cells (MTT)” value is reported as “did not exhibit significant cytotoxicity”. Also, the inhibition at 50 µM in data set [1] was found to be 15.9%.
Turning to `CC1OC(OCC2OC(OCCc3ccccc3)C(O)C(O)C2O)C(O)C(O)C1O` (centres unmarked) [Compound 36], the “Inhibition on sEH at 100 µM (%)” value on sEH is recorded as “N.I”. The “Cytotoxicity in RAW 264.7 cells (MTT)” value in the data set with RAW 264.7 cells is “did not exhibit significant cytotoxicity”. For the same compound, in data set [1], the inhibition at 50 µM amounted to 20.9%.
For `CC/C=C\CCO[C@@H]1O[C@H](CO)[C@@H](O)[C@H](O)[C@H]1O` [Compound 37], the inhibition at 100 µM against sEH was found to be 24.6 ± 3.1%. In the data set with RAW 264.7 cells, the “Cytotoxicity in RAW 264.7 cells (MTT)” value was “did not exhibit significant cytotoxicity”. For the same compound, in data set [1], the inhibition at 50 µM worked out at 14.5%.
